{"source": "paper PMC9029992", "about": "“New α-galactosidase-inhibiting aminohydroxycyclopentanes” (RSC Advances, 2021)", "key": {"[1]": {"target": "α-glucosidase from S. cerevisiae (GH 13)", "design": "method as in PMID 2825997", "conditions": "yeast; read-out: Ki α-Glc (yeast); cited from earlier work"}, "[2]": {"test_system": "α-galactosidase from E. coli (GH 36)", "conditions": "cited from earlier work"}, "[3]": {"target": "T1, α-galactosidase from green coffee beans (gcb, GH 27) (Coffea arabica, UniProt Q42656)", "T1 construct": "Green coffee bean α-galactosidase: 50 mM sodium phosphate buffer (pH 7); from tissue; host or cells: green coffee beans", "T1 sequence (Q42656 16-378)": "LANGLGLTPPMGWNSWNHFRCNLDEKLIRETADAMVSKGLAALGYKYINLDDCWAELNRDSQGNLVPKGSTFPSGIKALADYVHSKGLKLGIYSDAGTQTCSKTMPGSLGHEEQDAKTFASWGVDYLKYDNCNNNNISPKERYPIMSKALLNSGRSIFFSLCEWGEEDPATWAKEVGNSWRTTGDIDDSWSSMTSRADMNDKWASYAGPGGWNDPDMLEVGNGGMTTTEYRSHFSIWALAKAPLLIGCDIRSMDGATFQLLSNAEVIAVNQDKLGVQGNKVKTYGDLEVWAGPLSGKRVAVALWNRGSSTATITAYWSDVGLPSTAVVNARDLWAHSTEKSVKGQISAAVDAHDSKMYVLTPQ", "conditions": "cited from earlier work"}, "[4]": {"target": "T2, Fabrazyme® (commercial recombinant lysosomal α-galactosidase, GH 27) (Homo sapiens, UniProt P06280)", "T2 construct": "purchased", "T2 sequence (P06280 32-429)": "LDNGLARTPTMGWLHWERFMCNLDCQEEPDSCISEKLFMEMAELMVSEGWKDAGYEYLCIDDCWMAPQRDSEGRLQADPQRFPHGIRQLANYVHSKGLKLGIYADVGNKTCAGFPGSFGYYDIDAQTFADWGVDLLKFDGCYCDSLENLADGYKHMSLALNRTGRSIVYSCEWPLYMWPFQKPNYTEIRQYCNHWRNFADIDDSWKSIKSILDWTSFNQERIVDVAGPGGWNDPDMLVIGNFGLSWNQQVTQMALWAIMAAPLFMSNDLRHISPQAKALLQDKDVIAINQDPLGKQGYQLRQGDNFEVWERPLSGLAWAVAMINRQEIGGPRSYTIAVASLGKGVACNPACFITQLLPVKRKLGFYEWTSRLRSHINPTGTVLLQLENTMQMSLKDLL", "conditions": "cited from earlier work"}, "[5]": {"test_system": "bovine liver α-galactosidase", "design": "method as in PMID 15858658", "conditions": "cited from earlier work"}, "β-glucosidase (almonds)": {"target": "β-glucosidase (almonds)", "design": "method as in PMID 15064801", "conditions": "reported in literature, read-out: inhibitory activity against β-glucosidase; cited from earlier work"}, "[6]": {"target": "lac Z β-galactosidase from E. coli (GH 2) (Escherichia coli, UniProt P00722)", "sequence (P00722 2-1024 limits assumed)": "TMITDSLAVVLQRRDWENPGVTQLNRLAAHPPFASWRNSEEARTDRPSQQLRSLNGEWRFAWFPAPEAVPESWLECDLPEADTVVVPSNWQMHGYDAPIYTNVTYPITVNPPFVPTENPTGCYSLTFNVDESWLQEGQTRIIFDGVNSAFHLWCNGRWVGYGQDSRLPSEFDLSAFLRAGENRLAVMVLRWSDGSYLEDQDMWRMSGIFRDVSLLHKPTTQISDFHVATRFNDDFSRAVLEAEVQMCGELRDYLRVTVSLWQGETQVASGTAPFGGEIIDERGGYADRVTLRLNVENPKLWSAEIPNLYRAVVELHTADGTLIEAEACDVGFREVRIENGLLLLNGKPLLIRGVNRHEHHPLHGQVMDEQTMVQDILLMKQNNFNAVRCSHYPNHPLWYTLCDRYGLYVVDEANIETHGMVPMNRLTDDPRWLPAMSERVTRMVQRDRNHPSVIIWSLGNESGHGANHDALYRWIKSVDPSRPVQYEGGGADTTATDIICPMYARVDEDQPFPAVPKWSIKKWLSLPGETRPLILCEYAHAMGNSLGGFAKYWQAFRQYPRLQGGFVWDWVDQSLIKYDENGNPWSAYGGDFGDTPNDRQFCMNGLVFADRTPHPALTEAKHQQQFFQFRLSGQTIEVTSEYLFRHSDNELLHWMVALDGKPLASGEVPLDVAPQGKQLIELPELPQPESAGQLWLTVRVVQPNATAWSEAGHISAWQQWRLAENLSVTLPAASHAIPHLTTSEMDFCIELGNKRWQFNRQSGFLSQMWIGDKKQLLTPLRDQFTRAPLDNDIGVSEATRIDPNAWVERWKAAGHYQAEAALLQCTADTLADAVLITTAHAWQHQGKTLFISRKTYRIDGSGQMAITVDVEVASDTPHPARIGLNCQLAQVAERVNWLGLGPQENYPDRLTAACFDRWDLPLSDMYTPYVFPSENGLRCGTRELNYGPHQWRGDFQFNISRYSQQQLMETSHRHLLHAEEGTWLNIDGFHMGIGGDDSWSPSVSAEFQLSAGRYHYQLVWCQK", "assay": "Ki determination with E. coli lac Z β-galactosidase", "assay_type": "biochemical", "conditions": "pH 7, substrate Gal-β-pNP, room temperature", "experimental": "(§1) Kinetic studies were performed at room temperature in an appropriate buffer for each enzyme (specific conditions can be found below). All reactions were performed in half-area 96-well-plates (Corning) and monitored with a Synergy H1 plate reader (BioTek). In each experiment, the appropriate concentration of the enzyme was incubated with different concentrations of the inhibitors for 2–5 minutes before initiating the reaction by the addition of the glycoside substrate. The initial rate was then measured by monitoring the increase in, either absorbance at 405 nm (where the aglycone is either p-nitrophenol (pNP) or 2,4-dinitrophenol (dNP)) or fluorescence at 365/455 nm (where the aglycone is 4-methylumbelliferone (MU)) for up to five minutes. Ki determinations were performed using two different substrate concentrations. For each substrate concentration, a range of three to six inhibitor concentrations was used. Dixon plots (1/v vs. [I]) were constructed to validate the use of competitive inhibition model and to assess the fit of the data. The data were then fit to a competitive inhibition model using non-linear regression analysis with Grafit 7.0.0. (Erithacus Software)."}, "[7]": {"target": "T3, recombinant human lysosomal β-glucocerebrosidase (GCase, GH 30) (Homo sapiens, UniProt P04062)", "T3 sequence (P04062 40-536)": "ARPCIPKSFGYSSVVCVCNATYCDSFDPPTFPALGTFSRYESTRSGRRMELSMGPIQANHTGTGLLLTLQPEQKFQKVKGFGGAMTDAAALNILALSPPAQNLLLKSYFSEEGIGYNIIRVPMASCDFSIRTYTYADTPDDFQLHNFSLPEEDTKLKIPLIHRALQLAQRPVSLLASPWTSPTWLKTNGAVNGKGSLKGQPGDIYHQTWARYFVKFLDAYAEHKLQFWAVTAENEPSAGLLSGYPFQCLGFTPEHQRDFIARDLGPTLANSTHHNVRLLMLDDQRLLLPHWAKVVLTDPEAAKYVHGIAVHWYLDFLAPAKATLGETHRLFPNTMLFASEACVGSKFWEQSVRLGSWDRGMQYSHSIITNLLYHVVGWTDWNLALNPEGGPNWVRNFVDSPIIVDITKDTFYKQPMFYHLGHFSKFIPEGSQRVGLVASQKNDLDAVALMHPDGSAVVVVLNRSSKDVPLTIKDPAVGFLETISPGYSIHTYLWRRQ", "assay": "Ki determination with GCase (β-glucocerebrosidase)", "assay_type": "biochemical", "conditions": "pH 7, substrate Glc-β-dNP, room temperature", "experimental": "as §1"}, "[8]": {"target": "T1, α-galactosidase from green coffee beans (gcb, GH 27)", "assay": "Ki determination with green coffee bean α-galactosidase", "assay_type": "biochemical", "conditions": "pH 7, substrate Gal-α-MU, room temperature", "experimental": "as §1"}, "[9]": {"target": "T2, Fabrazyme® (commercial recombinant lysosomal α-galactosidase, GH 27)", "assay": "Ki determination with Fabrazyme (acid α-galactosidase)", "assay_type": "biochemical", "conditions": "pH 5.5, substrate Gal-α-dNP, room temperature", "experimental": "as §1"}, "[10]": {"target": "α-glucosidase from S. cerevisiae (GH 13)", "assay": "Ki determination with S. cerevisiae α-glucosidase", "assay_type": "biochemical", "conditions": "pH 7, substrate Glc-α-pNP, room temperature; read-out: Ki S. cer. (α-Glc) (GH 13)", "experimental": "as §1\nS. cerevisiae α-glucosidase: 50 mM sodium phosphate buffer (pH 7). Substrate: Glc-α-pNP, Km = 0.75 mM."}, "[11]": {"target": "T4, β-glucosidase/β-galactosidase from Agrobacterium sp. (Abg, GH 1) (Agrobacterium sp., UniProt P12614)", "T4 sequence (P12614 1-459)": "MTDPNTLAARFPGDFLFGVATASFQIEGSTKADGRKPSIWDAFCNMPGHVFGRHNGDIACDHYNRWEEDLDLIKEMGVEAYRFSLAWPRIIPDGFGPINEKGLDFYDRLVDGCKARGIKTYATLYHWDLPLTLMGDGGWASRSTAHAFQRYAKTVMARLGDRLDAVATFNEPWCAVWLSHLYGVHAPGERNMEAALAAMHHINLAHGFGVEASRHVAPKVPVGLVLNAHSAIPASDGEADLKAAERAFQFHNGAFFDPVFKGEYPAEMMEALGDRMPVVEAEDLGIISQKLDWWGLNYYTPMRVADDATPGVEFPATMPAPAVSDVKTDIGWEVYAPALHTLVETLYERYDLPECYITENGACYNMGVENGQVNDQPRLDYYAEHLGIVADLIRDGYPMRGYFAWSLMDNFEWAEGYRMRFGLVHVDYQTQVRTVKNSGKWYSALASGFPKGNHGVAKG", "assay": "Ki determination with Agrobacterium sp. β-glucosidase (Abg)", "assay_type": "biochemical", "conditions": "pH 7, substrate Gal-β-pNP, room temperature; read-out: Ki Abg (β-Glc/β-Gal) (GH 1)", "experimental": "as §1\nAgrobacterium sp. β-glucosidase:[48,49]"}, "[12]": {"conditions": "read-out: Ki gcb α-galactosidase"}}, "note": "Like-named read-outs stand apart in the source and are kept apart here."}
{"compound": "OC[C@H]1NC[C@H](O)[C@@H](O)[C@H]1O", "note": "[compound 1, 1,5-dideoxy-1,5-imino-D-galactitol]", "values": [{"measurement": "Ki", "setting": "[1]", "value": "> 1000", "unit": "µM"}, {"measurement": "IC50", "setting": "[2]; read-out: IC50 α-galactosidase from E. coli", "value": 0.24, "unit": "µM"}]}
{"compound": "OC[C@@H]1C[C@@H](O)[C@@H](O)[C@@H](CO)N1", "note": "[compound 2]", "values": [{"measurement": "IC50", "setting": "[3]; read-out: IC50 gcb galactosidase", "value": 0.06, "unit": "µM"}, {"measurement": "IC50", "setting": "[2]; read-out: IC50 E. coli enzyme", "value": 32, "unit": "µM"}]}
{"compound": "OC[C@H]1CNC[C@@H](O)[C@H]1O", "note": "[compound 3, 4-epi-isofagomine]", "values": [{"measurement": "IC50", "setting": "[3]; read-out: IC50 gcb", "value": 200, "unit": "µM"}]}
{"compound": "CCCCCCN1C[C@@H](O)[C@@H](O)[C@@](F)(CO)C1", "note": "[compound 4]", "values": [{"measurement": "Ki", "setting": "[3]; [12]", "value": 0.5, "unit": "µM"}, {"measurement": "Ki", "setting": "[4]; read-out: Ki Fabrazyme®", "value": 116, "unit": "µM"}]}
{"compound": "N[C@H]1C[C@H](CO)[C@H](O)[C@H](O)[C@H]1O", "note": "[compound 5, 4-epi-validamine]", "values": [{"measurement": "IC50", "setting": "[3]; read-out: IC50 gcb", "value": 500, "unit": "µM"}, {"measurement": "IC50", "setting": "[2]; read-out: IC50 E. coli", "value": 890, "unit": "µM"}]}
{"compound": "N[C@@H]1[C@H](O)[C@@H](O)[C@@H](O)[C@]2(CO)C[C@H]12", "note": "[compound 6]", "values": [{"measurement": "Ki", "setting": "[3]; read-out: Ki gcb", "value": 0.54, "unit": "µM"}, {"measurement": "IC50", "setting": "[2]; read-out: IC50 E. coli", "value": 80, "unit": "µM"}]}
{"compound": "OC[C@H]1NC[C@@H](O)[C@H]1O", "note": "[compound 7, 1,4-dideoxy-1,4-imino-D-lyxitol]", "values": [{"measurement": "Ki", "setting": "[3]; [12]", "value": 0.13, "unit": "µM"}]}
{"compound": "O=S1(=O)N[C@@H]2[C@H](O)[C@@H](O)[C@@H](O)[C@@H](CO)[C@@H]2O1", "note": "[compound 11]", "values": [{"measurement": "IC50", "setting": "[4]; as printed in Fig. 1", "value": 110, "unit": "µM"}, {"measurement": "Ki", "setting": "[4]; read-out: Ki Fabrazyme® (α-Gal) (GH 27)", "value": 110, "unit": "µM"}]}
{"compound": "OC[C@@H]1[C@H](O)[C@H](O)[C@@H](O)[C@H]1NCc1ccccc1", "note": "[compound 12]", "values": [{"measurement": "inhibitory activity against bovine liver α-galactosidase", "setting": "[5]", "value": "does not show any inhibitory activity"}, {"measurement": "Ki", "setting": "[3]; [12]", "value": 0.43, "unit": "µM"}, {"measurement": "Ki", "setting": "β-glucosidase (almonds)", "value": 0.51, "unit": "µM"}]}
{"compound": "N[C@@H]1[C@H](O)[C@@H](O)[C@@H](O)[C@H]1CO", "note": "[compound 22, (1S,2S,3S,4S,5R)-4-Amino-5-(hydroxymethyl)cyclopentane-1,2,3-triol]", "values": [{"measurement": "Ki", "setting": "[6]", "value": "200 ± 90", "unit": "µM"}, {"measurement": "Ki", "setting": "[7]", "value": "18 ± 3", "unit": "µM"}, {"measurement": "Ki", "setting": "[8]", "value": "6.7 ± 0.9", "unit": "µM"}, {"measurement": "Ki", "setting": "[9]", "value": "9.5 ± 1.9", "unit": "µM"}, {"measurement": "Ki", "setting": "[3]; read-out: Ki gcb (α-Gal) (GH 27) (converted)", "value": 12, "unit": "µM"}, {"measurement": "Ki", "setting": "[10]", "value": "160 ± 60", "unit": "µM"}, {"measurement": "Ki", "setting": "[11]", "value": "0.014 ± 0.003", "unit": "µM"}]}
{"compound": "CCCCCCN[C@@H]1[C@H](O)[C@@H](O)[C@@H](O)[C@H]1CO", "note": "[compound 23, (1S,2S,3S,4S,5R)-4-(n-Hexylamino)-5-(hydroxymethyl)cyclopentane-1,2,3-triol]", "values": [{"measurement": "Ki", "setting": "[6]", "value": "120 ± 20", "unit": "µM"}, {"measurement": "Ki", "setting": "[7]", "value": "40 ± 8", "unit": "µM"}, {"measurement": "Ki", "setting": "[8]", "value": "0.19 ± 0.05", "unit": "µM"}, {"measurement": "Ki", "setting": "[9]", "value": "4.9 ± 0.9", "unit": "µM"}, {"measurement": "Ki", "setting": "[10]", "value": "130 ± 40", "unit": "µM"}, {"measurement": "Ki", "setting": "[11]", "value": "0.013 ± 0.003", "unit": "µM"}]}
{"compound": "CCCCCCCCCN[C@@H]1[C@H](O)[C@@H](O)[C@@H](O)[C@H]1CO", "note": "[compound 24, (1S,2S,3S,4S,5R)-4-(n-Nonylamino)-5-(hydroxymethyl)cyclopentane-1,2,3-triol]", "values": [{"measurement": "Ki", "setting": "[6]", "value": "23 ± 7", "unit": "µM"}, {"measurement": "Ki", "setting": "[7]", "value": "1.2 ± 0.5", "unit": "µM"}, {"measurement": "Ki", "setting": "[8]", "value": "0.25 ± 0.05", "unit": "µM"}, {"measurement": "Ki", "setting": "[9]", "value": "0.52 ± 0.21", "unit": "µM"}, {"measurement": "Ki", "setting": "[10]", "value": "73 ± 17", "unit": "µM"}, {"measurement": "Ki", "setting": "[11]", "value": "0.0037 ± 0.0016", "unit": "µM"}]}
{"compound": "CN(C)c1cccc2c(S(=O)(=O)NCCCCCCN[C@@H]3[C@H](O)[C@@H](O)[C@@H](O)[C@H]3CO)cccc12", "note": "[compound 27, 5-(Dimethylamino)-N-(6-(((1S,2S,3S,4S,5R)-2,3,4-trihydroxy-5-(hydroxymethyl)cyclopentyl)amino)hexyl)naphthalene-1-sulfonamide]", "values": [{"measurement": "Ki", "setting": "[6]", "value": "7.8 ± 4.6", "unit": "µM"}, {"measurement": "Ki", "setting": "[7]", "value": "0.63 ± 0.09", "unit": "µM"}, {"measurement": "Ki", "setting": "[8]", "value": "0.14 ± 0.04", "unit": "µM"}, {"measurement": "Ki", "setting": "[9]", "value": "4.4 ± 1.1", "unit": "µM"}, {"measurement": "Ki", "setting": "[10]", "value": "16 ± 4", "unit": "µM"}, {"measurement": "Ki", "setting": "[11]", "value": "0.005 ± 0.001", "unit": "µM"}]}
{"compound": "Cc1c(OCC(F)(F)F)ccnc1C[S+]([O-])c1nc2ccccc2[nH]1", "note": "(stereo not shown) [lansoprazole]", "values": [{"measurement": "IC50", "setting": "[3]; read-out: IC50 gcb α-galactosidase", "value": 6.4, "unit": "µM"}]}
